Measured values reported in patent US20220211858A1, “TUBULAR SUPRAMOLECULAR POLYMERS” (priority 2019, published 2022).
Where two headings read alike, the source gives them in different places.

Columns and labels:
HT-29 cells = settings: free CPT 9 mg/kg i.p., n=5
Description: Antitumor efficacy study of SAPDs at the same dose on a HT-29 tumor model. […] When the averaged tumor size reached 75-95 mm^3, mice were randomly divided into six groups. […] The tumor volumes and body weights were monitored and recorded every two or three days. The tumor volume was estimated by measuring the length and width with calipers and using the equation “tumor volume=(length×width^2)/2”. Mice were euthanized once the tumor volume reached 1000 mm^3.

[1] = test system: human glioblastoma U87 MG cells; test: Antitumor efficacy study for systemic delivery, subcutaneous U87 MG tumor; type: in vivo, athymic nude mice; settings: controls: free CPT 4.5 mg/kg i.p.; irinotecan 60 mg/kg i.p.
Experimental: A total of 2×10^6 human glioblastoma U87 MG cells were subcutaneously injected into the right shoulder of athymic nude mice (8-9 weeks old). The mice were used for the efficacy study after three to four weeks when the tumor had reached about 190-250 mm^3 in size. […]. Water insoluble free CPT was dissolved/suspended in a mixture of DMSO/ethanol/PEG-400/water (1:1:2:1). CPT (4.5 mg/kg) and irinotecan (60 mg/kg) were administered by intraperitoneal injection, while freshly prepared TT 1 solutions of various doses were administered intravenously by tail vein injection every 4 days for a total of three doses (days 1, 5, and 9). […]. Tumor volumes were measured and recorded every other day. The body weights were measured and recorded every day or every other day. The tumor volume was determined by measuring the tumor in two dimensions with calipers and using the formula “tumor volume=(length×width^2)/2”. Each animal was euthanized once the tumor volume reached the predetermined end point size of 2000 mm^3.

[2] = Tolerability of free CPT in mice; type: in vivo
Experimental: Due to its poor water solubility, free CPT is often given in a formulation containing a mixture of DMSO/ethanol/PEG-400/water at a volumetric ratio of 1:1:2:1 (24). […] We eventually identified an intraperitoneal injection of 4.5 mg/kg CPT to be a tolerable dosage for animal studies. In contrast, the MTD of TT 1 SPs in healthy athymic nude mice, identified in a dose escalation study through systemic administration, is within the range of 24-30 mg/kg (CPT equivalent) (FIG. 3D and FIG. 13). […] Four out of five mice survived for up to 37 d (9 mg/kg) and 43 d (15 mg/kg).

[3] = test system: U87 MG human brain cancer cells; test: cells; settings: U-87 MG, 48 h
Experimental: (§1) The human brain cancer cell line U87 MG was a generous gift from Dr. Wirtz (ChemBE, JHU). DMEM (Invitrogen) containing 10% fetal bovine serum (FBS, Invitrogen) and 1% antibiotics (Invitrogen) was used for the culture of the U87 MG cells. Cancer cells were incubated at 37° C. in a humidified incubator (Oasis, Caron, Marietta, Ohio, USA) with an atmosphere of 5% CO2. […] U87 MG cells were seeded onto 96-well plates (5000 cells/well) and allowed to attach overnight. […] The stock solutions were then diluted with fresh medium to achieve final CPT concentrations of 0.1, 1, 10, 100, 500, 1000, 5000 and 10000 nM. After dilution, the nanotube-containing media were used to incubate cells immediately. Medium containing the same concentration of free CPT ranging from 0.1 to 10000 nM was also used to incubate the cells, with non-treated cells (solvent only) as the control group. In addition, irinotecan at the concentration of 0.1, 1, 5, 10, 50, 100 and 500 μM was employed as a second control. After 48 h incubation, the cell viability was evaluated using the SRB method according to the manufacturer's protocols (TOX-6, Sigma, St. Louis, Mo.).

[4] = Biodistribution study in U87 MG tumor-bearing mice; type: in vivo, nude mice; settings: nude, mouse, in vivo, 4.5 mg/kg, 4.5 mg/kg i.v., 1 hour after injection
Experimental: Mice bearing subcutaneous tumors were established by injecting 100 μL of a U87 MG suspension in serum-free medium (2×10^6 cells) into the right flank of the mice. When the tumor reached a size of −200 mm^3, the mice were randomly grouped and received one of the following 3 treatments via intravenous injection (n=18 for each group): free CPT (4.5 mg/kg), TT 1 (4.5 mg/kg), and TT 1 (15 mg/kg). Three mice from each group were euthanized at pre-determined time points (1, 2, 4, 8, 12, and 24 h). Plasma, major organs, and tumors were collected and stored at −80° C. for further analysis. To determine the amount of free CPT and TT 1 in the samples, 100 mg tumors were mixed with 900 μL acetonitrile (containing 0.1% TFA) and then homogenized using Precellys Evolution Super Homogenizer (Bertin Technologies, France) for 3×40 s (5,600 shakes/min). The resulting suspensions were centrifuged and the supernatants were collected. For plasma, 50 μL of sample was mixed with 450 μL acetonitrile (containing 0.1% TFA) and sonicated for 1 min. The supernatants were collected using centrifugation. All samples were filtered through a 0.22 μm membrane before analysis by a UPLC system (Waters ACQuity™ Ultra Performance LC) equipped with a reverse-phase column (ACQuity UPLC@BEH, C18, 1.7 μm 2.1×150 mm) and a fluorescence detector (ACQuity FLR, Ex/Em=362/430 nm). The column was flushed with a mixture of water (0.1% TFA) and acetonitrile (0.1% TFA) at 0.3 mL/min with the following gradient: 5% acetonitrile (0-1 min), 5-95% acetonitrile (1-5 min), 95% acetonitrile (5-8 min), 95-5% acetonitrile (8-9 min), and 5% acetonitrile (9-10 min). Peaks with retention times of 5.4 min (free CPT) and 6.9 min (TT 1) were monitored.

[5] = test system: U87 MG human glioblastoma; test: Antitumor efficacy study for local delivery (intratumoral TT 2 hydrogel); type: in vivo, athymic nude mice; settings: 10 mM hydrogel, 30 μL intratumoral
Experimental: The hydrogel formation of TT 2 in vivo was investigated through subcutaneous injection of a TT 2 gel. […] The tumor model used in local delivery is the same U87 MG human glioblastoma line used in the systemic delivery study described above. Mice were randomly selected (n=7) and treated with TT 2 hydrogel at a fixed dose (10 mM, 30 μL) through intratumoral injection. Tumor volumes and body weights were measured and recorded every other day. The tumor volume was determined by measuring the tumor in two dimensions with calipers and using the formula “tumor volume=(length×width^2)/2”. Each animal was euthanized once the tumor […] reached the predetermined end point size of 2000 mm^3.
The antitumor efficacy of TT 2 hydrogel was then evaluated in a subcutaneous U87 MG xenograft model via intratumoral injection of a 10 mM TT 2 SP hydrogel (30 μL). All seven mice studied experienced tumor regression with a minimum mean tumor volume of 36 mm^3 at day 25 and survived for more than 45 days (FIG. 3K).

[6] = Gel release of TT 2 nanotube hydrogel; type: physicochemical; settings: 10 mM in 1×-DPBS, 37° C., over 31 days
Experimental: TT 2 was dissolved in water and hydrogel formation triggered by the addition of 10×-DPBS to give a final TT 2 concentration of 10 mM in 1×-DPBS. 200 μL of the hydrogel was placed at the bottom of centrifuge tube and allowed to re-gel overnight. Three replicate experiments were prepared together and incubated at 37° C. Fresh 1×-DPBS (300 μL) was layered on top of the hydrogel and was refreshed at predetermined time points: 1, 2, 4, 7, 10, 13, 16, 19, 22, 25, 28, and 31 days. The samples were frozen with liquid nitrogen and stored at −30° C. until analysis. The amount of TT 2 in the top DPBS layer was determined by analytical RP-HPLC using the conditions described in the previous paragraph. The cumulative release of TT 2 from its hydrogels was calculated and plotted as a percentage of the total amount of hydrogel. The conjugate was seen to be released almost linearly from the hydrogel with ˜10% of the prodrugs being released over the 31-day period.

[7] = Zeta potential measurement; type: physicochemical; settings: 1×-DPBS buffer
Experimental: TT solutions of 200 μM in 1×-DPBS buffer (pH=7.4) were prepared by directly mixing identical volumes of a 400 μM aqueous TT solution and 2×-DPBS buffer (pH=7.4). In some embodiments, solutions at a concentration of 2 mM in PBS buffer (pH=7.4) were prepared and aged overnight prior to zeta potential measurement. TT solutions of 200 μM in 1×-DPBS buffer (pH=5.0) were prepared by mixing identical volumes of a 400 μM aqueous TT solution and 2×-DPBS buffer (pH=5.0), which was pretreated with 6 M HCl. The zeta potential measurements were performed on a Zetasizer Nano ZS90 (Malvern Instruments Ltd., UK). The prepared solutions were loaded in capillary cells and equilibrated for 2 min prior to measurement. The average values and their standard deviations are calculated from three replicate measurements. The zeta potential of the assembled structures was obtained by measuring the electrophoretic movement of the nanostructures under the applied electric field, where the movement velocity is determined by phase analysis light scattering. Variations of the zeta potential value over time were determined by measuring the solutions at different aging time points (1, 2, 4 and 7 days) and are plotted in FIG. 10.

[8] = test system: U87 MG human brain cancer cells; settings: 48 h
Experimental: as §1

[9] = TEM / cryo-TEM imaging of self-assembled nanostructures (dimensions); type: physicochemical; settings: self-assembled nanotubes in water, 200 μM, n>40
Experimental: About 200 μM stock solutions of corresponding TTs in water were prepared by dissolution of the lyophilized powders. After aging overnight, TEM samples were prepared by depositing 7 μL of the appropriate solution onto a carbon-coated copper grid (Electron Microscopy Services, Hatfield, Pa., USA), wicking away the excess solution with a small piece of filter paper. Next, 7 μL of a 2 wt % uranyl acetate aqueous solution was deposited on the surface for 30 seconds, wicking away the excess solution with filter paper. The grids were then air-dried overnight at room temperature prior to imaging. Bright-field TEM imaging was performed using an FEI Tecnai 12 TWIN Transmission Electron Microscope operated at an acceleration voltage of 100 kV. All TEM images were acquired by a SIS Megaview III wide-angle CCD camera or 16 bit 2K×2K FEI Eagle bottom mount camera.
Cryo-TEM imaging was performed using higher sample concentrations of 800 μM (compared with 200 μM for conventional TEM imaging). Extended imaging times can result in damage to the vitreous ice film caused by the electron beam and so higher concentrations can allow a more rapid visualization that reduces this likelihood. About 6 μL of the appropriate solution was dropped onto a lacey carbon-film-supported TEM copper grid (Electron Microscopy Services, Hatfield, Pa., USA). All the TEM grids used for cryo-TEM imaging were pretreated with plasma air to render the lacey carbon film hydrophilic. A thin film of the sample solution was produced using a Vitrobot with a controlled humidity chamber (FEI). After loading of the sample solution, the lacey carbon grid was blotted using preset parameters and plunged instantly into a liquid ethane reservoir precooled by liquid nitrogen. The vitrified samples were then transferred to a cryo-holder and cryo-transfer stage that was cooled by liquid nitrogen. To prevent sublimation of vitreous water, the cryo-holder temperature was maintained below −170° C. during the imaging process. All images were recorded by a Tecnai 12 microscope with a cryo-holder, and the images were acquired by a 16 bit 2K×2K FEI Eagle bottom mount camera.
Self-Assembly of SAPDs from TT1. To study the self-assembly behavior of the SAPDs, we directly dissolved the lyophilized powders in deionized water at a concentration of 2 mM and neutral pH.

Compound: CC[C@@]1(O)C(=O)OCc2c1cc1n(c2=O)Cc2cc3ccccc3nc2-1 [CPT, Camptothecin, reference compound]
- treatment outcome (deaths) (HT-29 cells): death of all five mice after the second dose
- median survival [1]: 17 days
- outcome of intravenous administration ([2]; 9 mg/kg i.v., DMSO/ethanol/PEG-400/water formulation): immediate death
- tolerable dosage ([2]; intraperitoneal injection): 4.5 mg/kg
- MTD ([2]; mouse, in vivo, intraperitoneal): ~5 mg/kg
- IC50 [3]: 62 nM
- concentration at 1 h ([4]; read-out: drug concentration in plasma): 37 ng/g
- concentration at 1 h ([4]; read-out: drug concentration in tumor): 92 ng/g

Compound: CC[C@]1(OC(=O)OCCSSC[C@@H](NC(C)=O)C(=O)N[C@@H](CCCCNC(=O)[C@@H](CSSCCOC(=O)O[C@]2(CC)C(=O)OCc3c2cc2n(c3=O)Cc3cc4ccccc4nc3-2)NC(C)=O)C(=O)N[C@@H](CCCCN)C(=O)N[C@@H](CCCCN)C(N)=O)C(=O)OCc2c1cc1n(c2=O)Cc2cc3ccccc3nc2-1 [TT 2]
- mice with complete tumor regression [5]: Four out of seven
- survival to end point of tumor-free mice [5]: around 140 d
- minimum mean tumor volume ([5]; day 25, n=7): 36 mm^3
- survival of all treated mice ([5]; n=7): more than 45 days
- cumulative release of TT 2 from hydrogel [6]: ~10%
- ζ-Potential ([7]; pH 5.0, 200 μM): 31.8 mV
- ζ-Potential ([7]; pH 7.4, 200 μM): 22.1 mV
- IC50 [8]: 123 nM
- Diameters measured by conventional TEM [9]: 8.1 ± 0.6 nm

Compound: CC[C@]1(OC(=O)OCCSSC[C@@H](NC(C)=O)C(=O)N[C@@H](CCCCNC(=O)[C@@H](CSSCCOC(=O)O[C@]2(CC)C(=O)OCc3c2cc2n(c3=O)Cc3cc4ccccc4nc3-2)NC(C)=O)C(=O)N[C@@H](CCC(=O)O)C(=O)N[C@@H](CCC(=O)O)C(N)=O)C(=O)OCc2c1cc1n(c2=O)Cc2cc3ccccc3nc2-1 [TT 3]
- ζ-potential at pH 7.4 versus pH 5.0 [7]: more negative ζ-potentials at pH 7.4 than 5.0
- Diameters measured by conventional TEM [9]: 8.4 ± 0.9 nm

Compound: CC[C@]1(OC(=O)OCCSSC[C@@H](NC(C)=O)C(=O)N[C@@H](CCCCNC(=O)[C@@H](CSSCCOC(=O)O[C@]2(CC)C(=O)OCc3c2cc2n(c3=O)Cc3cc4ccccc4nc3-2)NC(C)=O)C(=O)N[C@@H](CCCCN)C(=O)N[C@@H](CCC(=O)O)C(N)=O)C(=O)OCc2c1cc1n(c2=O)Cc2cc3ccccc3nc2-1 [TT 4]
- ζ-Potential ([7]; pH 5.0, 200 μM): −2.3 mV
- ζ-Potential ([7]; pH 7.4, 200 μM): −18.8 mV
- Diameters measured by conventional TEM [9]: 8.3 ± 0.9 nm

Compound: CC[C@]1(OC(=O)OCCSSC[C@@H](NC(C)=O)C(=O)N[C@@H](CCCCNC(=O)[C@@H](CSSCCOC(=O)O[C@]2(CC)C(=O)OCc3c2cc2n(c3=O)Cc3cc4ccccc4nc3-2)NC(C)=O)C(=O)N[C@H](CCCCNC(=O)CN2CCN(CC(=O)O)CCN(CC(=O)O)CCN(CC(=O)O)CC2)C(N)=O)C(=O)OCc2c1cc1n(c2=O)Cc2cc3ccccc3nc2-1 [TT 5]
- ζ-potential at pH 7.4 versus pH 5.0 [7]: more negative ζ-potentials at pH 7.4 than 5.0
- Diameters measured by conventional TEM [9]: 8.4 ± 0.9 nm
